Test results published in PubChem BioAssay AID248 (DTP/NCI, 2004).
“And” between values parts separate entries of the source, which are not always exact repeats. Identical values can stand only once. Toxic doses and inconclusive results are not listed. No stated cut-off is given here; in the data, active means T/C of 150% or more; inactive means T/C below 125%. Square brackets hold non-standard residues; d marks the D form. Peptide text beside a SMILES is read from it. * marks the point of attachment. Cbz = O=C(OCc1ccccc1)*; Sar = CNCC(=O)O

Test system: L1210 leukemia ip in BDF1 mice, survival T/C
Test: NCI In Vivo Anticancer Drug Screen. Data for tumor model L1210 Leukemia (intraperitoneal) in B6D2F1 (BDF1) mice
Conditions: endpoint: mean survival time, higher = longer survival
How it was run: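 Transplanted-tumor mice were given test agent; controls received vehicle only. Survival readings from the two groups were divided (treated over control).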

[1] = dose: 50.0 mg/kg/injection, schedule: Q01DX001 (ip), vehicle: carboxymethylcellulose (CMC)
[2] = dose: 100.0 mg/kg/injection, schedule: Q01DX001 (ip), vehicle: carboxymethylcellulose (CMC)
[3] = dose: 200.0 mg/kg/injection, schedule: Q01DX001 (ip), vehicle: carboxymethylcellulose (CMC)
[4] = dose: 100.0 mg/kg/injection, schedule: Q01DX009 (ip), vehicle: saline with Tween-80
[5] = dose: 100.0 mg/kg/injection, schedule: Q04DX003 (ip), vehicle: saline with Tween-80
[6] = dose: 200.0 mg/kg/injection, schedule: Q04DX003 (ip), vehicle: saline with Tween-80
[7] = dose: 400.0 mg/kg/injection, schedule: Q04DX003 (ip), vehicle: saline with Tween-80
[8] = dose: 100.0 mg/kg/injection, schedule: Q04DX003 (ip), vehicle: Klucel (hydroxypropylcellulose) (HPC)
[9] = dose: 200.0 mg/kg/injection, schedule: Q04DX003 (ip), vehicle: Klucel (hydroxypropylcellulose) (HPC)
[10] = dose: 400.0 mg/kg/injection, schedule: Q04DX003 (ip), vehicle: Klucel (hydroxypropylcellulose) (HPC)
[11] = dose: 100.0 mg/kg/injection, schedule: Q01DX001 (ip), vehicle: saline
[12] = dose: 200.0 mg/kg/injection, schedule: Q01DX001 (ip), vehicle: saline
[13] = dose: 400.0 mg/kg/injection, schedule: Q01DX001 (ip), vehicle: saline
[14] = dose: 400.0 mg/kg/injection, schedule: Q01DX001 (ip), vehicle: carboxymethylcellulose (CMC)

Measured: T/C

CC(C)=NNC(=O)c1ccccn1
inactive: [1] 101 % of control | dose: 50.0 mg/kg/injection, schedule: Q01DX009 (ip), vehicle: carboxymethylcellulose (CMC) 104 % of control | dose: 50.0 mg/kg/injection, schedule: Q04DX003 (ip), vehicle: carboxymethylcellulose (CMC) 100 % of control | [2] 104 % of control | dose: 100.0 mg/kg/injection, schedule: Q01DX009 (ip), vehicle: carboxymethylcellulose (CMC) 104 % of control and 106 % of control | dose: 100.0 mg/kg/injection, schedule: Q04DX003 (ip), vehicle: carboxymethylcellulose (CMC) 115 % of control | [3] 113 % of control

O=C(Nc1cccc(C(F)(F)F)c1)Nc1cccc2c1C(=O)c1ccccc1C2=O
inactive: [4] 88 % of control | dose: 200.0 mg/kg/injection, schedule: Q01DX009 (ip), vehicle: saline with Tween-80 87 % of control

COc1ccc(/C=C/c2cc[n+](C)cc2)cc1OC
inactive: dose: 75.0 mg/kg/injection, schedule: Q01DX001 (ip), vehicle: carboxymethylcellulose (CMC) 111 % of control | dose: 150.0 mg/kg/injection, schedule: Q01DX001 (ip), vehicle: carboxymethylcellulose (CMC) 109 % of control | dose: 300.0 mg/kg/injection, schedule: Q01DX001 (ip), vehicle: carboxymethylcellulose (CMC) 103 % of control

OC1C2CCC(C2)C1C(O)(C(F)(F)Cl)C(F)(F)Cl (stereo not given)
inactive: [5] 93 % of control | [6] 92 % of control | [7] 97 % of control

O=C(c1ccccc1)C1CN(C2CCCCC2)C1c1ccccc1 (stereo not given)
inactive: dose: 100.0 mg/kg/injection, schedule: Q01DX001 (ip), vehicle: Klucel (hydroxypropylcellulose) (HPC) 109 % of control and 97 % of control | [8] 95 % of control | dose: 200.0 mg/kg/injection, schedule: Q01DX001 (ip), vehicle: Klucel (hydroxypropylcellulose) (HPC) 117 % of control and 99 % of control | [9] 93 % of control | dose: 400.0 mg/kg/injection, schedule: Q01DX001 (ip), vehicle: Klucel (hydroxypropylcellulose) (HPC) 97 % of control and 91 % of control | [10] 97 % of control

C[Si](C)(C)Oc1ccc(O[Si](C)(C)C)cc1
inactive: dose: 100.0 mg/kg/injection, schedule: Q01DX009 (ip), vehicle: other 92 % of control | dose: 200.0 mg/kg/injection, schedule: Q01DX009 (ip), vehicle: other 94 % of control | dose: 400.0 mg/kg/injection, schedule: Q01DX009 (ip), vehicle: other 101 % of control

Cc1cc(=O)[nH]c2ccc(Cc3ccc4[nH]c(=O)cc(C)c4c3)cc12
inactive: [11] 102 % of control | [12] 102 % of control | [13] 107 % of control

CN(C)c1ncnc2c1c(Br)cn2C1OC(CO)C(O)C1O (stereo not given)
inactive: dose: 5.0 mg/kg/injection, schedule: Q01DX001 (ip), vehicle: saline 101 % of control | dose: 10.0 mg/kg/injection, schedule: Q01DX001 (ip), vehicle: saline 102 % of control | dose: 20.0 mg/kg/injection, schedule: Q01DX001 (ip), vehicle: saline 104 % of control | dose: 40.0 mg/kg/injection, schedule: Q01DX001 (ip), vehicle: saline 108 % of control

O=c1ccc2cc(OC3OC(CO)C(O)C(O)C3O)c(O)cc2o1 (stereo not given)
inactive: dose: 62.5 mg/kg/injection, schedule: Q01DX015 (ip), vehicle: carboxymethylcellulose (CMC) 95 % of control | dose: 125.0 mg/kg/injection, schedule: Q01DX015 (ip), vehicle: carboxymethylcellulose (CMC) 105 % of control | dose: 250.0 mg/kg/injection, schedule: Q01DX015 (ip), vehicle: carboxymethylcellulose (CMC) 100 % of control | [14] 111 % of control | dose: 600.0 mg/kg/injection, schedule: Q01DX001 (ip), vehicle: carboxymethylcellulose (CMC) 90 % of control | dose: 800.0 mg/kg/injection, schedule: Q01DX001 (ip), vehicle: carboxymethylcellulose (CMC) 92 % of control | dose: 1000.0 mg/kg/injection, schedule: Q01DX001 (ip), vehicle: carboxymethylcellulose (CMC) 101 % of control

OC(/C=C/c1ccccc1)CC(O)(C(F)(F)F)C(F)(F)F (stereo not given)
inactive: [5] 103 % of control | [6] 110 % of control | [7] 110 % of control

OC1(O)COC(c2ccccc2)OC1
inactive: dose: 100.0 mg/kg/injection, schedule: Q01DX009 (ip), vehicle: saline 96 % of control | [8] 105 % of control | dose: 200.0 mg/kg/injection, schedule: Q01DX009 (ip), vehicle: saline 102 % of control | [9] 101 % of control | dose: 400.0 mg/kg/injection, schedule: Q01DX009 (ip), vehicle: saline 93 % of control | [10] 99 % of control

CC(=O)Oc1cc(C)c(OC(C)=O)c(C)c1C
inactive: dose: 25.0 mg/kg/injection, schedule: Q01DX009 (ip), vehicle: saline with Tween-80 108 % of control | dose: 25.0 mg/kg/injection, schedule: Q04DX003 (ip), vehicle: saline with Tween-80 92 % of control | dose: 50.0 mg/kg/injection, schedule: Q01DX009 (ip), vehicle: saline with Tween-80 103 % of control | dose: 50.0 mg/kg/injection, schedule: Q04DX003 (ip), vehicle: saline with Tween-80 94 % of control | [4] 96 % of control | [5] 100 % of control and 103 % of control

Cc1ccc(S(=O)(=O)NN=C2CCCCC2)cc1
inactive: dose: 75.0 mg/kg/injection, schedule: Q01DX001 (ip), vehicle: saline 90 % of control | dose: 150.0 mg/kg/injection, schedule: Q01DX001 (ip), vehicle: saline 90 % of control | dose: 300.0 mg/kg/injection, schedule: Q01DX001 (ip), vehicle: saline 90 % of control

CN(C)c1ccc(P(=O)(c2ccc(N(C)C)cc2)c2ccc(N(C)C)cc2)cc1.CN(C)c1ccc(P(=O)(c2ccc(N(C)C)cc2)c2ccc(N(C)C)cc2)cc1.[Cl][Sn]([Cl])([Cl])[Cl]
inactive: dose: 50.0 mg/kg/injection, schedule: Q01DX009 (ip), vehicle: Klucel (hydroxypropylcellulose) (HPC) 87 % of control | dose: 100.0 mg/kg/injection, schedule: Q01DX009 (ip), vehicle: Klucel (hydroxypropylcellulose) (HPC) 91 % of control | dose: 200.0 mg/kg/injection, schedule: Q01DX009 (ip), vehicle: Klucel (hydroxypropylcellulose) (HPC) 94 % of control

NC(=O)c1c[n+]([O-])ccn1
inactive: dose: 50.0 mg/kg/injection, schedule: Q04DX003 (ip), vehicle: saline 108 % of control | [11] 96 % of control | dose: 100.0 mg/kg/injection, schedule: Q04DX003 (ip), vehicle: saline 101 % of control | [12] 98 % of control | dose: 200.0 mg/kg/injection, schedule: Q04DX003 (ip), vehicle: saline 113 % of control

CCSC1OC(COC(C)=O)C(OC(C)=O)C1NC(C)=O (stereo not given)
inactive: dose: 50.0 mg/kg/injection, schedule: Q01DX001 (ip), vehicle: saline 103 % of control | [11] 113 % of control | [12] 97 % of control | [13] 107 % of control

Cc1ccc(CC2=NC(C)(C)CC(C)O2)cc1 (stereo not given)
inactive: dose: 100.0 mg/kg/injection, schedule: Q04DX002 (ip), vehicle: saline 101 % of control | dose: 200.0 mg/kg/injection, schedule: Q04DX002 (ip), vehicle: saline 93 % of control | dose: 400.0 mg/kg/injection, schedule: Q04DX002 (ip), vehicle: saline 106 % of control

CN(CC(N)=O)C(=O)CNC(=O)OCc1ccccc1 (Cbz-Gly-[Sar]-NH2)
inactive: [8] 96 % of control | [9] 99 % of control | [10] 97 % of control

NCC1OC(n2cnc3c(N)ncnc32)C(O)C1O (stereo not given)
inactive: [1] 98 % of control | [2] 102 % of control | [3] 107 % of control | [14] 109 % of control

CS(=O)(=O)OCCNc1ccc([N+](=O)[O-])cc1
inactive: dose: 1.0 mg/kg/injection, schedule: Q01DX001 (ip), vehicle: saline 101 % of control | dose: 2.0 mg/kg/injection, schedule: Q01DX001 (ip), vehicle: saline 101 % of control | dose: 4.0 mg/kg/injection, schedule: Q01DX001 (ip), vehicle: saline 98 % of control | dose: 8.0 mg/kg/injection, schedule: Q01DX001 (ip), vehicle: saline 104 % of control | dose: 38.0 mg/kg/injection, schedule: Q01DX015 (ip), vehicle: saline 98 % of control | dose: 57.0 mg/kg/injection, schedule: Q01DX015 (ip), vehicle: saline 95 % of control | dose: 85.0 mg/kg/injection, schedule: Q01DX015 (ip), vehicle: saline 93 % of control
